Assay results from patent publication US12213959B2, “Use of 3-O-sulfamoyloxy-7β-methyl-d-homo-6-oxaestra-1,3,5(10),8(9)-tetraen-17a-one to treat breast cancer” (priority 2018, dated 2025).
Marks after values point to notes of the source that are not given here.

Columns and labels:
[1] = in vivo; cited from earlier work
[2] = test system: breast tumours in FBV/N female mice, transgenic for HER-2/neu; test: Antitumour activity on breast tumours of HER-2/neu transgenic mice; assay type: in vivo; conditions: for Relative change of the average total volume of tumours to that of Day −1 (M): Tamoxifen-1, 4.0 mg/kg daily i.g.; for Average total volume of tumours in mice (M) / Average volume of tumors existing at the beginning of the experiment (M) / TGI (average total tumour volume) / TGI (average tumor volume): Tamoxifen-1 group; for Average total volume of tumours in mice (M) / Average volume of tumors existing at the beginning of the experiment (M): 4.0 mg/kg daily i.g.; for TGI (average total tumour volume) / TGI (average tumor volume): 4.0 mg/kg
Experimental: The study was carried out on female FVB mice transgenic for HER-2/neu of the conventional category, the strain being obtained from the mouse bank Charles River Laboratories (Italy).
Duration of the administration course was 27-28 days.
The control groups were given the olive oil (placebo).
The macroscopically detectable tumor nodes were measured in the animals once per week during the weighing process.

uterine body = test: Hormonal effects on the uterine body (uterine weight); assay type: in vivo, mice; conditions: Tamoxifen-2, 4 mg/kg, end of observation
Experimental: The hormonal effects of the medicament on the uterine body was analyzed by comparing the uterine weight without uterine horns at the end of the observation period (Table 13).

[3] = test system: MCF-7 human cells culture (breast adenocarcinoma); test: Proliferative activity of MCF-7 cells; assay type: cell-based
Experimental: The study analysis was carried out on an passaged MCF-7 human cells culture culture (breast adenocarcinoma). Normal human dermal fibroblasts (HDF) of early passages were used as a negative control.
The cells were cultivated in Carrel vials in DMEM/F12 medium (Biolot) with 1.0% of antibiotic-free fetal bovine embryonic serum (Biolot) added in the 5% CO2 atmosphere, at 37° C.
The cells were seeded on Carrel vials at 50×10^4 cells per flask. To study the proliferative activity of the cells under conditions of sulfatase inhibition, 24 hours after seeding the culture medium […], and then these tumor cell lines were incubated for various periods of time (24 to 72 hrs). The inhibitor was dissolved in DMSO. […] To exclude the cytotoxic effect of DMSO, a control sample comprising DMSO without sulfatase inhibitor was prepared.
To exclude nonspecific detrimental effects of the compounds, normal human skin fibroblasts were used. Then the cells were detached with the versene-trypsin solution (Biolot), plated onto Carrel vials containing a fresh complete culture medium. The cells were counted when untreated control cells reached the maximum cell density per unit of surface area of a culture flask (monolayer), and their number was set as 100%. The proliferative activity of all of the studied cell cultures exposed to sulfatase inhibitors was determined in triplicate.

[4] = Body weight and tolerability during the antitumour study; conditions: for Average body weight of mice (M): 4.0 mg/kg daily i.g.; for Body weight: Tamoxifen-2, 4 mg/kg, end of observation
Experimental: The study medicament was administered i.g. using a metal atraumatic gavage (with the procedure corresponds to the oral route of administration in clinical settings). […] Ex tempore solutions of the medicament for administration were prepared in olive oil (refined olive oil supplemented with unrefined extra virgin olive oil available under Global Village “Clasico” trademark, lot L:183351116, expiry date 26.04.2020, BAIEO, Spain). The administered volume was 0.1 ml per 10 g of a mouse body weight (0.2 ml of a ready-to-use formulation for a mouse of 20 g). The medicament administration was started 24 hours after the randomization. Duration of the administration course was 27-28 days.
This dose corresponds to a human daily dose of 20 mg/kg.
The evaluation criteria included the clinical observation data, animals body weights, time of death (if applicable), tumor growth over time, pathomorphological examination data (verification of a neoplasm during autopsy, assessment of toxic effects by macroscopic presentation of changes in the internal organs).
The animals body weights were recorded before the first administration of the medicaments and then twice per week using a verified high-speed electronic laboratory balance Ohaus Scout Pro (USA) with a maximum load of 2000 g and a measurement pitch of 0.1 g.

[5] = test system: breast cancer cells MCF-7; conditions: cited from earlier work

For `C[C@]12CC[C@@H]3c4ccc(OS(N)(=O)=O)cc4CC[C@H]3[C@@H]1CCC2=O` [estrone sulfamate], the uterotropic activity [1] is listed as “strong uterotropic activity”.
In the case of `CC/C(=C(\c1ccccc1)c1ccc(OCCN(C)C)cc1)c1ccccc1` [Tamoxifen, reference compound], the “Relative change of the average total volume of tumours to that of Day −1 (M)” value (“Relative change … (M)” for short) ([2]; Day 6) is reported as 40%, the “Relative change … (M)” value ([2]; Day 13) is reported as 80** % and the “Relative change … (M)” value ([2]; Day −1) is reported as 0%. For the same compound, the “Average total volume of tumours in mice (M)” value ([2]; Day 6) was 1 0.76 cm^3, the “Average volume of tumors existing at the beginning of the experiment (M)” value (“Average volume of tumors existing” below) ([2]; Day 6) was 0.26 cm^3 and the “Average total volume of tumours in mice (M)” value ([2]; Day 13) was 0.88 cm^3. For the same compound, the “Average volume of tumors existing” value ([2]; Day 13) was 0.3 cm^3, the “Average volume of tumors existing” value ([2]; Day 20) was 0.47 cm^3 and the “Average volume of tumors existing” value ([2]; Day 27) was 0.58 cm^3. For the same compound, the “Average total volume of tumours in mice (M)” value ([2]; Day −1) was 0.66 cm^3, the “Average volume of tumors existing” value ([2]; Day −1) was 0.23 cm^3 and the “TGI (average total tumour volume)” value ([2]; vs Control-2, Day 6) was −162%. For the same compound, the “TGI (average tumor volume)” value ([2]; vs Control-2, Day 6) was −100%, the “TGI (average total tumour volume)” value ([2]; vs Control-2, Day 13) was −35% and the “TGI (average tumor volume)” value ([2]; vs Control-2, Day 13) was −7%. The “TGI (average total tumour volume)” value ([2]; vs Control-2, Day 20) was −39%, the “TGI (average tumor volume)” value ([2]; vs Control-2, Day 20) was −9% and the “TGI (average total tumour volume)” value ([2]; vs Control-2, Day 27) was −21%. For the same compound, the “TGI (average tumor volume)” value ([2]; vs Control-2, Day 27 (end of observation)) was 5%, the “TGI (average total tumour volume)” value ([2]; vs Control-2, Day −1) was −247% and the “TGI (average tumor volume)” value ([2]; vs Control-2, Day −1) was −188%. For the same compound, the “relative change in the total volume of tumours versus Control-3 group” value ([2]; Tamoxifen-2 group) was “exceeded the value across the Control-3 group”, the “average volume of tumours exceeded the control group by” value ([2]; Tamoxifen-2 group, end of the experiment) was 31% and the Uterine weight (uterine body; All mice) was 28 ± 1 MI. The Uterine weight (uterine body; estrous cycle phase E) was 28 ± 1 MI, the “inhibition of proliferation of MCF-7 tumour cells, compared with steroid of formula 2” value [3] was “inhibited to the same extent” and the “Average body weight of mice (M)” value ([4]; Tamoxifen-1 group, Day 1) was 27.7 g. For the same compound, the “Average body weight of mice (M)” value ([4]; Tamoxifen-1 group, Day 6) was 26.5 g, the “Average body weight of mice (M)” value ([4]; Tamoxifen-1 group, Day 13) was 27.3 g and the “Average body weight of mice (M)” value ([4]; Tamoxifen-1 group, Day 20) was 27.5 g. For the same compound, the “Average body weight of mice (M)” value ([4]; Tamoxifen-1 group, Day 27) was 28.2 g, the Body weight ([4]; All mice) was 34.2 ± 1.4 g and the Body weight ([4]; estrous cycle phase E) was 34.2 ± 1.4 g. The “Average body weight of mice (M)” value ([4]; Tamoxifen-2 group, Day 1) was 31.0 g, the “Average body weight of mice (M)” value ([4]; Tamoxifen-2 group, Day 7) was 32.0 g and the “Average body weight of mice (M)” value ([4]; Tamoxifen-2 group, Day 14) was 32.9 g. The “Average body weight of mice (M)” value ([4]; Tamoxifen-2 group, Day 21) was 32.8 g and the “Average body weight of mice (M)” value ([4]; Tamoxifen-2 group, Day 28) was 34.2 g.
For `C[C@H]1Oc2cc(OS(N)(=O)=O)ccc2C2=C1C1=CCC[C@H](OS(N)(=O)=O)[C@@]1(C)CC2` [3,17αβ-disulfamoyloxy-7β-methyl-D-homo-6-oxa-estra-1,3,5(10), 8,14-pentaen], the “growth of breast cancer cells MCF-7” value [5] is listed as “inhibitor of the growth”.
